Test [1] is described as follows: Cytotoxicity against human PC3 cells after 3 days by MTT assay. Format: functional, cell-based. To be noted: PC-3, 72 h. (Tetrazolium assays rely on reduction of a dye to a coloured formazan, in cell work by metabolically active cells.)
The subject of test [2] is Rhizoctonia solani. Kind of test: Antimicrobial activity against Rhizoctonia solani after 48 hrs by paper disk diffusion assay. Format: functional. Background: In agar diffusion tests the substance spreads into inoculated agar from a disc or well.
Test [3] relates to Rhizomucor miehei. The experiment in a line: Antimicrobial activity against Mucor miehei after 48 hrs by paper disk diffusion assay. Format: functional.
For test [4], the system named is Aphanomyces cochlioides. The experiment in a line: Antimicrobial activity against Aphanomyces cochlioides after 48 hrs by paper disk diffusion assay. The test is classed as functional.
Test [5] relates to Escherichia coli. The experiment in a line: Antimicrobial activity against Escherichia coli after 48 hrs by paper disk diffusion assay. Format: functional.
Test [6] deals with Staphylococcus aureus. Kind of test: Antimicrobial activity against Staphylococcus aureus after 48 hrs by paper disk diffusion assay. Format: functional.
For test [7], the system named is Bacillus subtilis. The experiment in a line: Antimicrobial activity against Bacillus subtilis after 48 hrs by paper disk diffusion assay. Format: functional.
Test [8] has as its system Globisporangium ultimum. Kind of test: Antimicrobial activity against Pythium ultimum after 48 hrs by paper disk diffusion assay. Format: functional.
A short description of test [9]: Inhibition of serum-opsonized zymosan-induced oxidative burst in whole blood (unknown origin). The test is classed as functional, tissue-based.
In test [10] the test system is Candida albicans. The experiment in a line: Antimicrobial activity against Candida albicans after 48 hrs by paper disk diffusion assay. The test is classed as functional.

In ChEMBL document CHEMBL3751690, “Oxidative burst inhibition, cytotoxicity and antibacterial acriquinoline alkaloids from Citrus reticulate (Blanco)” (Bioorg Med Chem Lett, 2016) one finds IC50 and MIC data, which are given here for ten compounds.

Each structure is given as a SMILES string.

Broadly, the IC50 is the concentration that gives 50% inhibition. A high value points to a need for much substance. One may read the MIC as the least concentration at which growth counts as inhibited. A high value points to a need for much substance.

In the case of `COc1c2ccoc2c(OC)c2oc(=O)ccc12` [ISOPIMPINELLIN], the IC50 was determined as 99.8 µM in test [1] and 9.4 µM in [9]. The MIC in [2], in [3], in [4], in test [5], in test [6] and in test [7] was more than 1 µg/mL throughout. Moreover, the minimal inhibitory concentration (MIC) in test [8] and in test [10] was more than 1 µg/mL throughout.

In the case of `CC1(C)C=Cc2c(cc(O)c3c(=O)cc(-c4ccc(O)cc4)oc23)O1` [ATALANTOFLAVONE], the concentration for half-maximal inhibition (IC50) in [1] was 55.6 µM; in test [9], 10.5 µM. For the same compound, the minimal inhibitory concentration (MIC) in [2], in test [3], in test [4], in test [5], in test [6] and in test [7] was more than 1 µg/mL throughout. Further, the MIC in test [8] and in [10] was more than 1 µg/mL each time.

In the case of `COc1ccc2c(=O)c3c(O)cc4c(c3n(C)c2c1C1(O)C(=O)c2cc(C)cc3ccc(=O)n1c23)C=CC(C)(C)O4` (configuration not stated), the IC50 in test [1] is 75.8 µM; in test [9], 20.1 µM. Moreover, the minimal inhibitory concentration (MIC) in test [2], in test [3], in [4], in [5], in [6] and in [7] was more than 1 µg/mL each time. The MIC in test [8] and in test [10] was more than 1 µg/mL each time.

As to `COc1cccc2c(=O)c3c(O)cc4c(c3n(C)c12)C=CC(C)(C)O4`, the IC50 in test [1] was found to be 70 µM; in test [9], 4.5 µM. Besides, the MIC in test [2], in test [3], in [4], in test [5], in test [6] and in test [7] was more than 1 µg/mL each time. Also, the MIC in test [8] and in test [10] was more than 1 µg/mL throughout.

As for `COc1cc(O)c(C=O)cc1OC`, the figures for the concentration for half-maximal inhibition (IC50) in test [1] and in [9] were 60.1 µM and 16.4 µM, respectively. The MIC in test [2], in test [3], in test [4], in test [5], in test [6] and in test [7] was more than 1 µg/mL each time. The MIC in test [8] and in [10] was more than 1 µg/mL in each case.

The compound `CC(C)Cc1ccc(C(C)C(=O)O)cc1` (configuration not stated) [IBUPROFEN] yielded a concentration for half-maximal inhibition (IC50) in test [9] of 11.2 µM.

For the compound `COc1cc2ccc(=O)oc2cc1OC` [SCOPARONE], the IC50 in [1] came out at 54.4 µM; in [9] it was 11.4 µM. The MIC in test [2], in test [3], in test [4], in test [5], in test [6] and in [7] was more than 1 µg/mL each time. Also, the minimum inhibitory concentration (MIC) in test [8] and in test [10] was more than 1 µg/mL each time.

In test [1], `COc1cccc2c1C(=O)c1c(O)c3c(c(O)c1C2=O)C[C@@](O)(C(=O)CO)C[C@@H]3O[C@H]1C[C@H](N)[C@H](O)[C@H](C)O1` [DOXORUBICIN] came in with an IC50 of 0.9 µM.

Regarding `COc1cc2oc(=O)ccc2cc1CC=C(C)C` [SUBEROSIN], the IC50 in [1] was 51.3 µM; in test [9] it was 18.3 µM. The minimal inhibitory concentration (MIC) in [2], in [3], in test [4], in test [5], in [6] and in test [7] was more than 1 µg/mL throughout. The MIC in test [8] and in [10] was more than 1 µg/mL in each case.

Consider `Cc1cc2c3c(ccc(=O)n3C(O)(c3c(O)ccc4c(=O)c5c(O)cc6c(c5n(C)c34)C=CC(C)(C)O6)C2=O)c1` (configuration not stated), for which the half-inhibitory concentration (IC50) in test [1] amounted to 71.5 µM; in test [9] it was 17.2 µM. In addition, the MIC in test [2], in test [3], in [4], in [5], in [6] and in test [7] was more than 1 µg/mL in each case. The MIC in [8] and in test [10] was more than 1 µg/mL in each case.
